Reference: PubChem BioAssay (NCI)
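96-well plates; 48 h exposure; 5 concentrations. Endpoints by linear interpolation between flanking doses. Not reached: highest tested concentration assigned. GI50 is the concentration that inhibits growth by half. TGI marks complete inhibition of growth.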

Key:
Experiment in all cases: NCI anticancer screen, dose series, 48 h
RPMI-8226 leukemia = tested on: RPMI-8226 leukemia
PC-3 prostate = tested on: PC-3 prostate
OVCAR-8 ovarian = tested on: OVCAR-8 ovarian
MOLT-4 leukemia = tested on: MOLT-4 leukemia
ACHN renal = tested on: ACHN renal
HL-60(TB) leukemia = tested on: HL-60(TB) leukemia
UO-31 renal = tested on: UO-31 renal
SK-OV-3 ovarian = tested on: SK-OV-3 ovarian
NCI-H460 lung = tested on: NCI-H460 lung
BT-549 breast = tested on: BT-549 breast

SMILES	TGI (RPMI-8226 leukemia) [µM]	TGI (PC-3 prostate) [µM]	TGI (OVCAR-8 ovarian) [µM]	TGI (MOLT-4 leukemia) [µM]	TGI (ACHN renal) [µM]	TGI (HL-60(TB) leukemia) [µM]	TGI (UO-31 renal) [µM]	TGI (SK-OV-3 ovarian) [µM]	TGI (NCI-H460 lung) [µM]	TGI (BT-549 breast) [µM]	GI50 (RPMI-8226 leukemia) [µM]	GI50 (PC-3 prostate) [µM]	GI50 (OVCAR-8 ovarian) [µM]	GI50 (MOLT-4 leukemia) [µM]	GI50 (ACHN renal) [µM]	GI50 (HL-60(TB) leukemia) [µM]	GI50 (SK-OV-3 ovarian) [µM]	GI50 (NCI-H460 lung) [µM]	GI50 (BT-549 breast) [µM]
CN(C)CC1CCC/C(=C\c2ccc(OC(=O)/C=C/c3ccc(Cl)c(Cl)c3)cc2)C1=O (stereo not drawn)	0.62	13.2	28.5	4.13	3.46	3.45	13.9	> 100	23.2	8.01									
CN(C)CCNC(=O)c1ccc(Cl)c2cc3ccccc3nc12	3.9	2.6	6.44	4.03	12.1	3.98	11	12.8	3.9	7.82									
Cc1cc(N2CCCC2)c([N+](=O)[O-])cc1[N+](=O)[O-]	> 100	> 100	> 100	> 100	> 100	> 100	> 100	> 100	> 100	> 100									
COCC12CCC(OC)C34C5CC6(O)C(OC)CC(OC(C)=O)(C5C6OC(=O)c5ccccc5)C(C(OC)C13)C4N(C)C2 (stereo not drawn)	> 100	> 100	> 100	> 100	> 100	> 100	> 100	> 100	> 100	> 100									
COc1ccc([C@]23CCN4COC[C@@H]([C@H]42)C2(CC3)OCC(C)(C)CO2)cc1OC	> 100	> 100	> 100	> 100	> 100	> 100	> 100	> 100	> 100	> 100									
COc1cc(CCN(C)C)cc(OC)c1OC	> 100	> 100	> 100	> 100	> 100	> 100		> 100	> 100	> 100									
O=C(C(Cl)=C(N1CCCCC1)N1CCCCC1)C(Cl)Cl	> 100	> 100	> 100	> 100	> 100	> 100	> 100	> 100	> 100	> 100									
Cc1c2ccccc2c(C)n2c1nc1ccccc12	> 100	25.2	> 100	> 100	45.5	> 100	24.1	27.1	20.1	35.3									
C=Cc1nc(C#N)c(N)o1	> 100	> 100	> 100	> 100		> 100	> 100	> 100	> 100	> 100									
COc1cccc(C2SC(C)C(=O)N2CCc2cccs2)c1 (stereo not drawn)	5.39	8.65	14.3	10.7	13.8	7.49		13.2	11	9.11	1.88	2.05	3.49	2.34	3.34	2.59	2.95	2.83	2.69
COc1ccc2c(c1)c1nn(CCN3CCCCC3)c3ccc4c(=O)n(CCN(C)C)c(=O)n2c4c13	0.0862	0.603	0.3		0.243	0.511	0.354	2.91	< 0.0216	1.08									
COC(=O)C1=CON2C3CC4CC(C3)CC(C4)C12C (stereo not drawn)	> 100	> 100	> 100	> 100	> 100	> 100	> 100	> 100	> 100	> 100									
COc1ccc2[nH]c(C(=O)N3CC(CCl)c4c3cc(N)c3ccccc43)cc2c1 (stereo not drawn)	0.138	0.0447	< 0.0177	< 0.0153		< 0.01	< 0.0164	0.964		< 0.0261									
CCOC(=O)C(NC(=O)CC)(Nc1ccc(F)c(Cl)c1)C(F)(F)F (stereo not drawn)	> 100	> 100	> 100	> 100	> 100	> 100	> 100	> 100	> 100	> 100									
CCOC(=O)C(=O)CC(=O)C1=C(c2ccccc2OC)CC(c2cccs2)=CC1=O	> 100	> 100	> 100	> 100	> 100	> 100	> 100	> 100	> 100	> 100									
